Paper PMC9804871, “Effect of Opicapone on Levodopa Pharmacokinetics in Patients with Fluctuating Parkinson's Disease” (Movement Disorders, 2022)

Key:
[1] = system: patients with PD and end-of-dose motor fluctuations; test: 24-hour patient Hauser on/off diary; type: in vivo, human (patients with PD); details: for ON-time With Non-Troublesome Dyskinesia / ON-time With Troublesome Dyskinesia / ON-time Without Dyskinesia / Total OFF-time / Total ON-time: 24-hour Hauser diary, mean (SD); for 24-h total off time, geometric mean (90% CI) / 24-h total on time, geometric mean (90% CI): N 12
Procedure: Clinical and safety/tolerability outcomes were also assessed as exploratory secondary outcomes. Clinical outcomes included on and off time assessed using patient‐rated tools. The timing of on and off states was registered (in real time) by the investigators during the matching 12‐hour pharmacokinetic evaluation (as such applied on pharmacokinetics days only), and patients also completed 24‐hour patient Hauser on/off diary charts[21] (in 30‐minute blocks) during the 3 days before each pharmacokinetic visit. Diary states of interest were off time and on time, including on without dyskinesia, on with nontroublesome dyskinesia, and on with troublesome dyskinesia. In addition, the Patient Global Impression of Change (PGI‐C) of opicapone 50 mg was evaluated at the end of the LD/CD 400/100 mg plus opicapone treatment compared with before the start of opicapone treatment.[22] Safety and tolerability endpoints included treatment‐emergent adverse events (TEAEs), serious TEAEs, and TEAEs leading to discontinuation.
Clinical outcomes are also presented descriptively. A paired t test was used for the comparison of 12‐hour off and on time, 24‐hour off and on time, time to on, and time to best on between each opicapone‐containing regimen and the regimen without opicapone. Estimates of mean difference and corresponding 90% CIs were reported for all main variables.

[2] = 12-hour 3-O-methyldopa plasma pharmacokinetics; type: in vivo, human (patients with PD); details: for 3-O-methyldopa Cmax,max, Geometric Mean (90% CI): N 12; for 3-O-methyldopa tmax: median; for 3-O-methyldopa Cmax,max: mean (%CV)
Procedure: Following screening, all patients received a daily LD/CD dose of 500/125 mg for 2 weeks, administered as LD/CD 100/25 mg five times a day (five‐intake LD/CD 500/125 mg), fixed every 3 hours (from 8 AM to 8 PM) at pharmacokinetic day. Patients were then randomly assigned (1:1) to receive two different regimens of opicapone 50 mg plus LD/CD (400/100 mg daily) for an additional 2 weeks. • Patients on opicapone regimen 1 received LD/CD 100/25 mg four times a day plus opicapone 50 mg at least 1 hour after the last administration of LD/CD each day (four‐intake LD/CD 400/100 mg plus opicapone 50 mg), fixed every 4 hours (from 8 AM to 8 PM) at pharmacokinetic day. • Patients on opicapone regimen 2 received alternating LD/CD 100/25 mg and 50/12.5 mg doses (ie, 100/25 mg, 50/12.5 mg, 100/25 mg, 50/12.5 mg, and 100/25 mg) five times a day plus opicapone 50 mg at least 1 hour after the last administration of LD/CD each day (five‐intake LD/CD 400/100 mg plus opicapone 50 mg), fixed every 3 hours (from 8 AM to 8 PM) at pharmacokinetic day.
The primary objective of the study was to evaluate the pharmacokinetics of LD in the two opicapone LD/CD 400/100 mg dosing regimens (four and five intakes) when compared with the five‐intake LD/CD 500/125 mg regimen without opicapone. The pharmacokinetics study endpoint was set after 2 weeks of each treatment regimen (ie, at the end of the initial five‐intake LD/CD 500/125 mg treatment regimen and at the end of the LD/CD 400/100 mg plus opicapone treatment). Pharmacokinetic evaluation occurred over 12 hours with sampling every 30 minutes, except for the last sample following each LD dose in the opicapone plus four LD intake regimen, which was sampled at 1 hour. The main pharmacokinetics parameters assessed included maximum observed plasma concentration (Cmax), time to achieve peak plasma levels (tmax), minimum observed plasma concentration (Cmin), plasma elimination half‐life (t1/2), area under the curve (AUC), and fluctuation index (FI; as an expression of peak‐to‐trough fluctuation, Cmax, and Cmin, relative to average concentration [Cavg]). The pharmacokinetics of the LD metabolite 3‐O‐methyldopa (3‐OMD) was also evaluated.
Descriptive statistics were used to summarize the pharmacokinetics parameters for LD and 3‐OMD for each of the three regimens. […] No formal comparison was performed between opicapone regimens. Pharmacokinetic parameters were evaluated within the same population for each LD/CD 400/100 mg plus opicapone treatment regimen compared with the LD/CD 500/125 mg without opicapone regimen. Geometric mean ratios and corresponding 90% confidence intervals (CIs) for the LD and 3‐OMD log‐transformed pharmacokinetics parameters (AUCtotal, Cmax,max and Cmin,min [only for LD]) were calculated using a paired t test for the comparison between the five‐intake LD/CD 500/125 mg treatment without opicapone and each of the two LD/CD 400/100 mg plus opicapone regimens; only data from completers (patients with data for both regimens) were used for this analysis.

[3] = 5-intake LD/CD 500/125mg vs 4-intake LD/CD 400/100mg plus OPC 50mg
[4] = 5-intake LD/CD 500/125mg vs 5-intake LD/CD 400/100mg plus OPC 50mg
[5] = five-intake levodopa/carbidopa 500/125 mg vs five-intake levodopa/carbidopa 400/100 mg plus opicapone 50 mg
[6] = five-intake levodopa/carbidopa 500/125 mg vs four-intake levodopa/carbidopa 400/100 mg plus opicapone 50 mg
[7] = 5-intake LD/CD 500/125mg vs 4-intake LD/CD 400/100mg plus OPC 50mg, 1st LD/CD intake, mean
[8] = 5-intake LD/CD 500/125mg vs 4-intake LD/CD 400/100mg plus OPC 50mg, 2nd LD/CD intake, mean
[9] = 5-intake LD/CD 500/125mg vs 4-intake LD/CD 400/100mg plus OPC 50mg, 3rd LD/CD intake, mean
[10] = 5-intake LD/CD 500/125mg vs 4-intake LD/CD 400/100mg plus OPC 50mg, 4th LD/CD intake, mean
[11] = 5-intake LD/CD 500/125mg vs 5-intake LD/CD 400/100mg plus OPC 50mg, 1st LD/CD intake, mean
[12] = 5-intake LD/CD 500/125mg vs 5-intake LD/CD 400/100mg plus OPC 50mg, 2nd LD/CD intake, mean
[13] = 5-intake LD/CD 500/125mg vs 5-intake LD/CD 400/100mg plus OPC 50mg, 3rd LD/CD intake, mean
[14] = 5-intake LD/CD 500/125mg vs 5-intake LD/CD 400/100mg plus OPC 50mg, 4th LD/CD intake, mean

## levodopa/carbidopa [LD/CD]
[1]; [3]
  ON-time With Non-Troublesome Dyskinesia: 86.7 (72.6) min
  ON-time With Troublesome Dyskinesia: 35.0 (26.5) min
  ON-time Without Dyskinesia: 411.7 (122.6) min
  Total OFF-time: 442.50 (96.3) min
  Total ON-time: 488.3 (110.9) min
[1]; [4]
  ON-time With Non-Troublesome Dyskinesia: 66.4 (48.0) min
  ON-time With Troublesome Dyskinesia: 20.0 (24.49) min
  ON-time Without Dyskinesia: 446.7 (110.0) min
  Total OFF-time: 431.70 (100.3) min
  Total ON-time: 519.2 (91.2) min
[1]; [5]
  24-h total off time, geometric mean (90% CI): 420.3 (369.8, 477.6) min
  24-h total on time, geometric mean (90% CI): 512.5 (470.9, 557.9) min
[1]; [6]
  24-h total off time, geometric mean (90% CI): 433.0 (386.4, 485.0) min
  24-h total on time, geometric mean (90% CI): 476.5 (421.9, 538.2) min
[2]; 5-intake LD/CD 500/125mg vs 4-intake LD/CD 400/100mg +OPC 50mg
  3-O-methyldopa Cmax,max, Geometric Mean (90% CI): 4264 (3631, 5006) ng/mL
[2]; [7]
  3-O-methyldopa AUCτ: 10068^a h*ng/mL
  3-O-methyldopa Cmax: 3453 ng/mL
  3-O-methyldopa Cmin: 3021 ng/mL
[2]; 5-intake LD/CD 500/125mg vs 4-intake LD/CD 400/100mg plus OPC 50mg, 1st LD/CD intake
  3-O-methyldopa tmax: 1.75 h
[2]; [8]
  3-O-methyldopa Cmax: 3619 ng/mL
  3-O-methyldopa Cmin: 3077 ng/mL
[2]; 5-intake LD/CD 500/125mg vs 4-intake LD/CD 400/100mg plus OPC 50mg, 2nd LD/CD intake
  3-O-methyldopa tmax: 2.5 h
[2]; [9]
  3-O-methyldopa AUCτ: 14278^b h*ng/mL
  3-O-methyldopa Cmax: 4011 ng/mL
  3-O-methyldopa Cmin: 3437 ng/mL
[2]; 5-intake LD/CD 500/125mg vs 4-intake LD/CD 400/100mg plus OPC 50mg, 3rd LD/CD intake
  3-O-methyldopa tmax: 2.71 h
[2]; 5-intake LD/CD 500/125mg vs 4-intake LD/CD 400/100mg plus OPC 50mg, 4th LD/CD intake, 1 patient
  3-O-methyldopa AUCτ: 13519^c h*ng/mL
[2]; [10]
  3-O-methyldopa Cmax: 4435 ng/mL
  3-O-methyldopa Cmin: 3766 ng/mL
[2]; 5-intake LD/CD 500/125mg vs 4-intake LD/CD 400/100mg plus OPC 50mg, 4th LD/CD intake
  3-O-methyldopa tmax: 2.5 h
[2]; [3]
  3-O-methyldopa Cmax,max: 4447 (29.2) ng/mL
[2]; 5-intake LD/CD 500/125mg vs 5-intake LD/CD 400/100mg +OPC 50mg
  3-O-methyldopa Cmax,max, Geometric Mean (90% CI): 4201 (3733, 4727) ng/mL
[2]; [11]
  3-O-methyldopa AUCτ: 8991^g h*ng/mL
  3-O-methyldopa Cmax: 3191 ng/mL
  3-O-methyldopa Cmin: 2868 ng/mL
[2]; 5-intake LD/CD 500/125mg vs 5-intake LD/CD 400/100mg plus OPC 50mg, 1st LD/CD intake
  3-O-methyldopa tmax: 1.5 h
[2]; [12]
  3-O-methyldopa AUCτ: 9002^d h*ng/mL
  3-O-methyldopa Cmax: 3406 ng/mL
  3-O-methyldopa Cmin: 2907 ng/mL
[2]; 5-intake LD/CD 500/125mg vs 5-intake LD/CD 400/100mg plus OPC 50mg, 2nd LD/CD intake
  3-O-methyldopa tmax: 2.5 h
[2]; 5-intake LD/CD 500/125mg vs 5-intake LD/CD 400/100mg plus OPC 50mg, 3rd LD/CD intake, 1 patient
  3-O-methyldopa AUCτ: 11951^c h*ng/mL
[2]; [13]
  3-O-methyldopa Cmax: 3875 ng/mL
  3-O-methyldopa Cmin: 3151 ng/mL
[2]; 5-intake LD/CD 500/125mg vs 5-intake LD/CD 400/100mg plus OPC 50mg, 3rd LD/CD intake
  3-O-methyldopa tmax: 2.5 h
[2]; [14]
  3-O-methyldopa Cmax: 4170 ng/mL
  3-O-methyldopa Cmin: 3586 ng/mL
[2]; 5-intake LD/CD 500/125mg vs 5-intake LD/CD 400/100mg plus OPC 50mg, 4th LD/CD intake
  3-O-methyldopa tmax: 2.71 h
[2]; [4]
  3-O-methyldopa Cmax,max: 4300 (22.4) ng/mL
